Experimental data as given in patent US20120245229A1, “METHOD FOR TREATING NEUROPATHIC PAIN” (priority 2009, published 2012).

How the values were obtained:
[1] = test system: complete Freund's adjuvant (CFA)-evoked heat hyperalgesia; test: CFA-evoked heat hyperalgesia (paw withdrawal latency, Hargreaves); assay type: in vivo, mice; conditions: intrathecal, post-CFA day 3; DHA and EPA 10 μg
Protocol: (§1) Animals and pain models. Adult CD1 mice (male, 25-32 g) were used for most experiments. Knockout mice were used lacking TNFR1/II (Tnfrsf1a/1b^−/−) and TRPV1 (Trpv1^−/−) and C57BL/6 wild-type control mice, all from Jackson, for some experiments. All animal procedures performed in this study were approved by the Harvard Medical Area Standing Committee on Animals. 20 μl of diluted formalin (5%), carrageenan (CRG, 1%), or complete Freund's adjuvant (CFA) were injected into the plantar surface of a hindpaw to produce acute, persistent, or chronic inflammatory pain, respectively. Postoperative pain was also produced through hindpaw incision^36 and neuropathic pain by ligation of the spinal nerve^37.
Reagents and administration. RvE1 and RvD1 were suspended in 1% or 10% ethanol as vehicle for investigating acute (<1 h) and persistent (1-6 h) effects of resolvins on inflammatory pain. The reagents (10 μl) were delivered to the cerebral spinal fluid via intrathecal injection made by a spinal cord puncture between the L5 and L6 level with a 30G needle^38.
(§2) Behavioral analysis. Mice were habituated in the testing environment for two days and performed behavioral testing in a blinded manner. Formalin-evoked spontaneous inflammatory pain was assessed by measuring duration (seconds) animals spent on licking/flinching the affected paws every 5 min for 45 min. Capsaicin-induced spontaneous pain was aslo assessed for 10 min. For testing mechanical sensitivity, mice were put in boxes on an elevated metal mesh floor and stimulated hindpaw with a series of von Frey hairs with logarithmically incrementing stiffness (0.02-2.56 grams, Stoelting), presented perpendicular to the plantar surface. It was determined the 50% paw withdrawal threshold using Dixon's up-down method^40. For testing heat sensitivity, mice were placed in plastic boxes and tested heat sensitivity using Hargreaves radiant heat apparatus (IITC Life Science Inc.). The basal paw withdrawal latency was adjusted to 9-12 seconds and set a cut-off of 20 seconds to prevent tissue damage. The percent maximal possible antinociceptive effect (% M.P.E) was calculated using the equation % M.P.E.=[(PL−BL2)/(BL1−BL2)]×100. BL1, baseline latency before inflammation; BL2, baseline latency after inflammation but before drug injection; PL, latency post drug injection.
Intrathecal injection. To avoid systemic effects of drugs and target spinal mechanisms, drugs were delivered into cerebral spinal fluid (CSF) space around lumbosacral spinal cord via intrathecal (i.t.) administration. Spinal cord puncture was made with a 30G needle between the L5 and L6 level to deliver the reagents (10 μl) to the cerebral spinal fluid (Hylden and Wilcox, 1980)^5. […] In addition to spinal cord cells, intrathecal drug administration also affects DRG cells^6,7.
The anti-hyperalgesic efficacy of RvE1 prepared in 1% and 10% ethanol was compared on post-CFA day 3.

[2] = test system: paw incision-induced postoperative pain; test: Postoperative pain model induced by hindpaw incision; assay type: in vivo, mice; conditions: intraplantar 20 ng, 10 min before paw incision
Protocol: as §1
Behavioral analysis. Mice were habituated in the testing environment for two days and performed behavioral testing in a blinded manner. Formalin-evoked spontaneous inflammatory pain was assessed by measuring duration (seconds) animals spent on licking/flinching the affected paws every 5 min for 45 min. Capsaicin-induced spontaneous pain was aslo assessed for 10 min. […] It was determined the 50% paw withdrawal threshold using Dixon's up-down method^40. […] The percent maximal possible antinociceptive effect (% M.P.E) was calculated using the equation % M.P.E.=[(PL−BL2)/(BL1−BL2)]×100. […]

[3] = test system: carrageenan (CRG)-elicited heat hyperalgesia; test: Carrageenan (CRG)-elicited heat hyperalgesia; assay type: in vivo, mice; conditions: intraplantar pretreatment, 20 ng, 10 min before carrageenan
Protocol: as §1, §2
Resolvins were also used for intraplantar injection. […]

inflammatory pain = test: Inflammatory pain models induced by formalin or CFA (summary statements); assay type: in vivo, mouse
Protocol: as §1, §2

`CC/C=C\C[C@H](O)/C=C/C=C\C=C\C=C\[C@@H](O)[C@@H](O)C/C=C\CCC(=O)O` [RvD1] was tested, and the CFA-evoked heat hyperalgesia [1] was “Attenuation”, the “paw incision-induced mechanical allodynia” value [2] was “attenuates the development of paw incision-induced mechanical allodynia” and the CRG-evoked heat hyperalgesia [3] was “substantially attenuated”. For the same molecule, the pain-like behaviors (inflammatory pain) was “potently inhibit”.
